# Patent publication US20050032646A1, “Agents for the regulation of gametophytic self-incompatibility and a control method for the breakdown of gametophytic self-incompatibility using the agents” (priority 2002, published 2005)
# Assays:
# Hongro apple flowers = experiment: Side-effect of the agents toward Hongro apple flowers; assay type: in vivo; design: key: 0: no side-effect is observed, and it is same as no treatment of the agents; 1: the side-effect are observed in flowers, but they recover to normal fruition in a week; 2: a fall-out of flowers and 10% decrease in fruition rate; 3: about 40% loss; 4: 60% loss; 5: a severe loss in fruition
# Description: To investigate the side-effect of the agent, various concentrations of the agents were treated to the flowers of Hongro apple.
# Safinia purple = experiment: Breakdown of self-incompatibility and seed production of Safinia purple; assay type: in vivo, Safinia purple (petunia)
# Description: To establish the application method of the SI suppressing agent for the seed production, a field experiment was performed with Safinia purple ( the Solanaceae, a petunia developed by Suntory Ltd).
# To a 15 cm-radii round pot, were added fine soil (pH 5.6) and 2 gr of complex fertilizer (including N, P, K 8% each) and they were mixed well. Safinia purple of 10 cm height were planted and raised in a green house for 2 weeks. At the period of 30 % bloom the diluted aqueous solutions of Zn(II) propionate or Cu(II) propionate agent were micro-sprayed enough to wet a flower and a style(3 ml). Two days after treatment of the agent, self-pollen was pollinated to its own style and the seed production was investigated. The experiments were repeated twice.
# 20-Century pear = experiment: Breakdown of the self-incompatibility in 20-century pear (fertilization rate, field); assay type: in vivo; conditions: 600 μM, sprayed 5 and 2 days before full bloom, 14 days after the treatment
# Description: In a field test, 20-Century pear (the Rosaceae) which has self-incompatibility system was isolated single-genetically by covering up selected branches or whole plants with a fine-meshed net to exclude any pollinating insects. The aqueous of 600 μM solution of an agent of the present invention was treated enough to get-wet flowers with a micro-spray at 9:00-11:00 AM. The agent solution was micro-sprayed 2 times; first at 5 days before full bloom and second at 2 days before full bloom. The reference was artificial cross-pollination at full bloom. The fertilization rate was investigated 14 days after the treatment and compared with no treatment and artificial cross-pollination.
# [1] = system: style-specific S RNase of Fuji apple; experiment: Inhibition of the activity of a style-specific S RNase by the agents; assay type: biochemical; conditions: optical density at 260 nm (A260), agent 2.0 mM, no treatment 1.10
# Description: Inhibition of S RNase activity by an agent of the present invention was measured as follows: The standard solution of 500 μL of 10 mM sodium phosphate (pH 7.0) with an agent (2.0 mM), and 500 μL of torula yeast rRNA (5 mg/mL) was pre-incubated for 10 min at 37° C. To the substrate solution, the 20 μL of the style-specific S RNase (200 ng) of Fuji apple was added, then the solution was incubated for 30 min at 37° C. A fraction of 200 μL was collected and 40 μL of stop buffer (ice-cold 25% HCIO4, 0.75% uranyl acetate) was added, then mixed and centrifuged at 12,000 rpm for 5 min. And 50 μL of the supernatant was diluted with 950 μL of dd H2O, then the solution was centrifuged and measured the optical density at 260 nm (A260) (Singh A. et al., Plant Physilolgy, 96: 61-68,1991).
# Hongro apple = experiment: Breakdown of the self-incompatibility in Hongro apple (self-pollination rate, field); assay type: in vivo; conditions: 25 days after the treatment
# Description: In the field application experiment, Hongro apple (the Rosaceae) which has a very low self-pollination rate (<5%) was isolated single-genetically by covering up whole plants with a fine-meshed net to exclude any pollinating insects. The agent of the present invention was treated enough to get-wet flowers at various concentrations with a micro-spray at 9:00-11:00 AM. The target of the agent was the first-blooming primary apple flower. The self-pollination rate was investigated 25 days after the treatment and compared with no treatment and artificial cross-pollination.
smiles,measurement,setting,value
CCC(=O)[O-].CCC(=O)[O-].[Zn+2] [Zn(II) Propionate],side-effect index,Hongro apple flowers; 1.0 mM,0
same,side-effect index,Hongro apple flowers; 5.0 mM,0
same,side-effect index,Hongro apple flowers; 20.0 mM,1
same,seed production relative (%) to control,Safinia purple; concn 10 μM,514.3%
same,self-pollination pollination ratio (%),Safinia purple; concn 10 μM,29.4%
same,self-pollination relative (%) to control,Safinia purple; concn 10 μM,1000%
same,seed production relative (%) to control,Safinia purple; concn 30 μM,442.9%
same,self-pollination pollination ratio (%),Safinia purple; concn 30 μM,42.4%
same,self-pollination relative (%) to control,Safinia purple; concn 30 μM,1400%
same,seed production relative (%) to control,Safinia purple; concn 100 μM,1057.1%
same,self-pollination pollination ratio (%),Safinia purple; concn 100 μM,47.1%
same,self-pollination relative (%) to control,Safinia purple; concn 100 μM,1600%
same,seed production relative (%) to control,Safinia purple; concn 300 μM,1128.6%
same,self-pollination pollination ratio (%),Safinia purple; concn 300 μM,63.6%
same,self-pollination relative (%) to control,Safinia purple; concn 300 μM,2100%
same,seed production relative (%) to control,Safinia purple; concn 1000 μM,1628.6%
same,self-pollination pollination ratio (%),Safinia purple; concn 1000 μM,64.5%
same,self-pollination relative (%) to control,Safinia purple; concn 1000 μM,2000%
same,fertilization rate,20-Century pear,45%
same,OD (2.0 mM),[1],0.69
same,self-pollination rate,Hongro apple; concentration 0.01 mM,>10%
same,self-pollination rate,Hongro apple; concentration 0.03 mM,>30%
same,self-pollination rate,Hongro apple; concentration 0.10 mM,>50%
same,self-pollination rate,Hongro apple; concentration 0.30 mM,>50%
same,self-pollination rate,Hongro apple; concentration 1.0 mM,>50%
